“Also recorded” adds a separate entry of the source.
Experiments:
[1] = test system: Female Albino hairless mice (Skh-hairless-1); assay: Lifetime topical application of all-trans-retinoic acid to albino hairless mice (toxicity, clinical and histochemical skin observations); conditions: for clinical observations: condition of the skin: lifetime application, mice 91-106 weeks of age at photograph (Figure 1), versus vehicle and untreated controls
Description: (§1) Lifetime Application of all-trans-Retinoic Acid to Albino Hairless Mice.
(§2) Female Albino hairless mice (Skh-hairless-1), age 8-11 weeks, were treated topically, three times a week, for the remainder of their life span as follows:
(§3) The mice were examined monthly for skin changes and possible weight loss that might indicate a toxic effect.
(§4) Toward the end of the study, mice were photographed to show the condition of the skin. A few mice were sacrificed at about 70, 80 and 90 weeks, with dorsal skin taken for histochemical evaluation. The remainder were allowed to live out their life span which ranged from 91-106 weeks and were biopsied when moribound, if possible. The histochemical stains were: H&E for general histology, Luna's for elastic fibers, Van Gieson's for collagen and Mowry's for proteoglycans.

[2] = test system: Female Albino hairless mice (Skh-hairless-1); conditions: mouse, in vivo
Description: as §1, §2, §3, §4

## CC1=C(/C=C/C(C)=C/C=C/C(C)=C/C(=O)O)C(C)(C)CCC1 [all-trans-retinoic acid]
[1]; 0.025% (100 µl) topically, three times a week, remainder of life span, compared with cream vehicle and untreated groups
  mortality: no difference in mortality
[1]
  clinical observations: condition of the skin: thinner, pinker, more uniform skin than the controls
[1]; listed as All-trans-retinoic acid
  clinical observations: condition of the skin: thinner, pinker, more uniform skin than controls or untreated mice
[1]; lifetime treatment
  collagen in the repair zones (Van Gieson's stain): stained mainly as normal, mature collagen
  dermal inflammation (H&E): mild inflammatory infiltrate in the mid-dermis
  epidermal cell morphology (H&E): plump, cytologically normal and have abundant cytoplasm; also recorded: plump, cytologically normal and had an abundant cytoplasm
  granular layer of epidermis (H&E): about 4 cell layers
[1]; lifetime treatment (Figure 4)
  elastic fibers (Luna's stain): increased amount of new elastic fibers
[1]; lifetime treatment, compared with the other groups
  glycosamino-/proteoglycan deposits at the dermal-epidermal junction (Mowry's stain): Fewer deposits
[1]; lifetime treatment, hyperplastic, controls had the usual 2-4 compressed-looking cells
  epidermis (H&E), thickness: about 8 cell layers
[1]; lifetime treatment, no repair areas in controls
  new collagen (H&E; Luna's stain): Areas of new collagen were apparent
[1]; lifetime treatment, sample from a mouse 95 weeks of age
  granular layer of epidermis (H&E, Figure 4): approximately 4 cells
[1]; lifetime treatment, stated for all groups
  dermal glycosaminoglycans or proteoglycans (Mowry's stain): little or no increase
[1]; lifetime treatment, unlike in the controls
  blood vessels (H&E): abundance of new blood vessels; also recorded: readily seen
[1]; treatment over a lifetime
  toxic effects: no detectable toxic effects
[2]
  adverse or unusual effects at biopsy and necropsy: no indication that the mice suffered any adverse or unusual effects
  weights of mice: no difference in the weights
